Results published in the supplement of paper PMC12350171.

Assays:
Parabacteroides merdae = test: IC25 growth inhibition; higher = less potent
Outline: (§1)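 Under anaerobic conditions, OD578 was read hourly in a plate reader for at least three biological replicates of monocultures grown overnight in mGAM. Each culture started at an OD578 of 0.01 in pre-reduced plates holding twofold drug dilutions and 1% DMSO (or water). IC25 was reported as a tested interval: the lowest concentration where the monotonic median area under the growth curve dropped below the cutoff. That cutoff was 0.75.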

Clostridium perfringens = test: IC25 growth inhibition; higher = less potent
Outline: as §1

[1] = system: Salmonella enterica typhimurium; test: IC25 growth inhibition; higher = less potent
Outline: as §1

Bacteroides uniformis = test: IC25 growth inhibition; higher = less potent
Outline: as §1

Bacteroides vulgatus = test: IC25 growth inhibition; higher = less potent
Outline: as §1

Dorea formicigenerans = test: IC25 growth inhibition; higher = less potent
Outline: as §1

Vibrio cholerae = test: IC25 growth inhibition; higher = less potent
Outline: as §1

Eubacterium rectale = test: IC25 growth inhibition; higher = less potent
Outline: as §1

Collinsella aerofaciens = test: IC25 growth inhibition; higher = less potent
Outline: as §1

Ruminococcus gnavus = test: IC25 growth inhibition; higher = less potent
Outline: as §1

[2] = system: Streptococcus parasanguinis; test: IC25 growth inhibition; higher = less potent
Outline: as §1

[3] = system: Yersinia pseudotuberculosis; test: IC25 growth inhibition; higher = less potent
Outline: as §1

[4] = system: Yersinia enterocolitica WA-314; test: IC25 growth inhibition; higher = less potent
Outline: as §1

[5] = system: Fusobacterium nucleatum subsp. Nucleatum; test: IC25 growth inhibition; higher = less potent
Outline: as §1

Bacteroides fragilis NT = test: IC25 growth inhibition; higher = less potent
Outline: as §1

[6] = system: Bacteroides thetaiotaomicron; test: IC25 growth inhibition; higher = less potent
Outline: as §1

Clostridium bolteae = test: IC25 growth inhibition; higher = less potent
Outline: as §1

Shigella flexneri = test: IC25 growth inhibition; higher = less potent
Outline: as §1

Roseburia intestinalis = test: IC25 growth inhibition; higher = less potent
Outline: as §1

Streptococcus salivarius = test: IC25 growth inhibition; higher = less potent
Outline: as §1

Coprococcus comes = test: IC25 growth inhibition; higher = less potent
Outline: as §1

[7] = system: Clostridium saccharolyticum; test: IC25 growth inhibition; higher = less potent
Outline: as §1

Clostridium ramosum = test: IC25 growth inhibition; higher = less potent
Outline: as §1

Escherichia coli ED1a = test: IC25 growth inhibition; higher = less potent
Outline: as §1

[8] = system: Com21 synthetic gut community; test: community biomass OD578 after 24 h drug treatment relative to untreated (fraction of untreated control); higher = more community growth; details: community: Com21 (Com20 + E. coli ED1a)
Description: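 Com21 (Com20 plus E. coli ED1a) was treated with drug for 24 h under anaerobic conditions in mGAM. Community OD578 was then measured and normalised to untreated Com21; mean of 3 biological replicates.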

[9] = drug pretreatment concentration 10 µM
[10] = drug pretreatment concentration 20 µM
[11] = drug pretreatment concentration 40 µM
[12] = drug pretreatment concentration 80 µM
[13] = drug pretreatment concentration 160 µM
[14] = drug pretreatment concentration 2.5 µM
[15] = drug pretreatment concentration 5 µM
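Wherever IC25 growth inhibition is given: lowest concentration where monotonic median growth AUC falls below 0.75 of drug-free control.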

SMILES	IC25 growth inhibition (Parabacteroides merdae)	IC25 growth inhibition (Clostridium perfringens)	IC25 growth inhibition [1]	IC25 growth inhibition (Bacteroides uniformis)	IC25 growth inhibition (Bacteroides vulgatus)	IC25 growth inhibition (Dorea formicigenerans)	IC25 growth inhibition (Vibrio cholerae)	IC25 growth inhibition (Eubacterium rectale)	IC25 growth inhibition (Collinsella aerofaciens)	IC25 growth inhibition (Ruminococcus gnavus)	IC25 growth inhibition [2]	IC25 growth inhibition [3]	IC25 growth inhibition [4]	IC25 growth inhibition [5]	IC25 growth inhibition (Bacteroides fragilis NT)	IC25 growth inhibition [6]	IC25 growth inhibition (Clostridium bolteae)	IC25 growth inhibition (Shigella flexneri)	IC25 growth inhibition (Roseburia intestinalis)	IC25 growth inhibition (Streptococcus salivarius)	IC25 growth inhibition (Coprococcus comes)	IC25 growth inhibition [7]	IC25 growth inhibition (Clostridium ramosum)	IC25 growth inhibition (Escherichia coli ED1a)	community biomass OD578 [8, 9]	community biomass OD578 [8, 10]	community biomass OD578 [8, 11]	community biomass OD578 [8, 12]	community biomass OD578 [8, 13]	community biomass OD578 [8, 14]	community biomass OD578 [8, 15]
Cc1c(OCC(F)(F)F)ccnc1C[S+]([O-])c1nc2ccccc2[nH]1 (stereo not drawn) [Lansoprazole]	> 160 µM	> 160 µM	> 160 µM	≤ 160 µM	> 160 µM	≤ 160 µM	> 160 µM	> 80 µM	≤ 160 µM	> 160 µM	> 160 µM	> 160 µM	> 160 µM	> 160 µM	> 160 µM	> 160 µM	> 160 µM	> 160 µM	> 160 µM	> 160 µM	> 160 µM	> 160 µM	> 160 µM	> 160 µM	0.935	0.962	0.952	0.945	0.926	–	–
CCOC(=O)N1CCC(=C2c3ccc(Cl)cc3CCc3cccnc32)CC1 [Loratadine]	≤ 40 µM	> 160 µM	> 40 µM	> 160 µM	> 160 µM	> 160 µM	> 160 µM	> 160 µM	> 160 µM	> 80 µM	> 160 µM	> 40 µM	> 80 µM	> 160 µM	> 160 µM	> 160 µM	> 160 µM	> 160 µM	> 160 µM	> 160 µM	> 40 µM	> 160 µM	≤ 80 µM	> 40 µM	1.02	1.01	0.941	–	–	1	1.01
CN1CCN(C2=Nc3ccccc3Oc3ccc(Cl)cc32)CC1 [Loxapine]	≤ 10 µM	≤ 160 µM	> 160 µM	≤ 160 µM	≤ 10 µM	≤ 160 µM	≤ 80 µM	≤ 40 µM	> 160 µM	≤ 160 µM	> 160 µM	> 160 µM	> 160 µM	≤ 160 µM	≤ 80 µM	≤ 40 µM	> 160 µM	> 160 µM	≤ 160 µM	≤ 160 µM	> 40 µM	> 160 µM	> 160 µM	> 160 µM	0.993	0.996	0.991	0.987	0.951	–	–
CN(C)C(=N)NC(=N)N [Metformin]	> 160 µM	> 160 µM	> 160 µM	> 160 µM	> 160 µM	> 160 µM	> 160 µM	> 160 µM	> 160 µM	> 160 µM	> 160 µM	> 160 µM	> 160 µM	> 160 µM	> 160 µM	> 160 µM	> 160 µM	> 160 µM	> 160 µM	> 160 µM	> 160 µM	> 160 µM	> 160 µM	> 160 µM	1.02	1.01	1.01	1.02	1.03	–	–
CN(Cc1cnc2nc(N)nc(N)c2n1)c1ccc(C(=O)N[C@@H](CCC(=O)O)C(=O)O)cc1 [Methotrexate]	> 80 µM	≤ 20 µM	> 80 µM	≤ 10 µM	≤ 20 µM	≤ 40 µM	≤ 40 µM	≤ 80 µM	≤ 80 µM	≤ 10 µM	< 1.25 µM	> 80 µM	> 80 µM	≤ 20 µM	≤ 40 µM	> 80 µM	≤ 10 µM	> 80 µM	> 80 µM	≤ 5 µM	≤ 80 µM	> 80 µM	< 1.25 µM	> 40 µM	0.934	0.95	0.802	–	–	0.93	0.91
Clc1ccc(COC(Cn2ccnc2)c2ccc(Cl)cc2Cl)c(Cl)c1 (stereo not drawn) [Miconazole]	≤ 80 µM	≤ 40 µM	> 160 µM	> 160 µM	≤ 160 µM	≤ 5 µM	> 40 µM	≤ 2.5 µM	≤ 10 µM	≤ 10 µM	> 160 µM	> 40 µM	≤ 160 µM	> 40 µM	> 160 µM	> 160 µM	≤ 80 µM	> 40 µM	≤ 5 µM	> 80 µM	≤ 5 µM	≤ 40 µM	≤ 10 µM	> 80 µM	1.02	0.969	0.893	0.702	0.547	–	–
O=C(Nc1ccc([N+](=O)[O-])cc1Cl)c1cc(Cl)ccc1O [Niclosamide]	< 1.25 µM	≤ 2.5 µM	> 160 µM	< 1.25 µM	< 1.25 µM	≤ 20 µM	< 1.25 µM	≤ 5 µM	≤ 5 µM	≤ 10 µM	< 1.25 µM	> 20 µM	> 160 µM	≤ 80 µM	< 1.25 µM	< 1.25 µM	> 80 µM	> 40 µM	≤ 20 µM	< 1.25 µM	≤ 20 µM	≤ 20 µM	≤ 2.5 µM	> 80 µM	0.912	0.901	0.897	0.823	0.811	–	–
